Test results taken from US6805880B1, “Pharmaceutical delivery system for vitamin C and vitamin E and use of a combination of vitamin C and E for preventing or treating conditions involving oxidative stress” (Ferrosan A/S, priority 1999, dated 2004).
Where two headings read alike, the source gives them in different places.

Assays:
[1] = in vivo
Experimental: The inventors conducted a controlled trial with a formulation including both slow release vitamin C and conventional release vitamin E (250 mg AA and 91 mg α-tocopherol). 520 men and women, smokers and non-smokers, were randomised to vitamin C slow release, vitamin E, a formulation with vitamin E and slow release vitamin C, or placebo (Table 4).
In a double-masked 2×2 factorial trial, 520 smoking and non-smoking men and postmenopausal women aged 45-69 years with serum cholesterol ^35.0 […] were randomised in these four strata to receive either 182 mg of d-α-tocopheryl acetate, 500 mg of slow-release vitamin C daily, both or placebo for three years. Atherosclerotic progression was defined as linear regression slope of the mean ultrasonographically assessed common carotid intima-media thickness (IMT) over time.
(§1) The study consisted of 8-week dietary counseling and placebo lead-in phase and a 3-year double-masked phase, for which the subjects were randomly allocated to either (i) […] of d-α-tocopheryl acetate twice daily (272 IU of vitamin E a day), ii) 250 mg slow-release ascorbic acid twice daily, (iii) both d-α-tocopheryl acetate and ascorbic acid in a single tablet, or (iv) placebo only. After the double-blind 3-year period, the study is continuing for another three years as an open study. The doses were chosen on the basis of pilot and kinetic studies (13, 15). The subjects were randomised separately in four strata of approximately equal size: (1) smoking (^35 cigarettes/day) men, (2) nonsmoking men, (3) smoking postmenopausal women, and (4) nonsmoking postmenopausal women. All subjects gave a written informed consent.
Ascorbic acid was stabilised in heparin plasma with metaphosphoric acid immediately after plasma separation, and frozen at −80° C. Combined ascorbic acid and dehydroascorbic acid were determined with an HPLC method (39). Heparin plasma for α-tocopherol was extracted with ethanol and hexane and measured by a reversed phase HPLC method (15). Cholesterol and triglycerides were determined with enzymatic […] methods (30). Serum LDL cholesterol was measured based on precipitation using polyvinyl sulfate and HDL cholesterol after precipitation with magnesium chloride (30). Plasma fibrinogen concentration was determined with a clotting method (30), plasma homocysteine with an HPLC method (44), and serum ferritin by an immunoradiometric assay (Bio Rad, Quantimune, Hercules, Calif.). Dietary intake of foods and nutrients was assessed at baseline by 4-day instructed food recording. Physical activity was assessed by 12-month checked questionaire (43). Blood pressure was measured manually in sitting position after a rest of 10 minutes, three measurements at 3 minutes' intervals.

[2] = Experimental: as §1
[3] = system: common carotid artery intima-media thickness; experiment: ASAP study: progression of common carotid atherosclerosis (slope of ultrasonographic mean CCA-IMT); assay type: in vivo, human; settings: for mean adjusted 3-year change of the mean carotid artery intima-media thickness (supplement: Yes): multivariate general linear model; for OR of atherosclerotic progression: double placebo as reference; for average unadjusted increase (slope) of the mean CCA-IMT: 3 years; for treatment effect on the proportion with progression: compared with placebo
Experimental: All subjects gave a written informed consent.
The subjects came to baseline visits and were randomised. Follow-up visits were 6, 12, 18, 24, 30 and 36 months later. Supplements were given, returned tablets were counted and ultrasonographic assessment of common carotid artery (CCA) intima-media thickness (IMT) was carried out at all these seven visits.
Equipment: Two identical Biosound Phase 2 systems were used (Biosound, Indianapolis, Ind., USA) equipped with a 8-10 MHz annular array transducer, with a measurement precision of 0.03 mm (41). The scannings were videotaped with PAL S-VHS Panasonic AG 7330E VCR.
Scanning (imaging) procedure and videorecording: The ultrasonographic scanning of the common carotid arteries (CCA), the carotid bulbs and the proximal internal carotid artery (ICA) was performed after a supine rest of 10 minutes, the subject in the supine position. […] The scanning was started with a diagnostic examination of entire accessible carotid tree, to find the most severe lesions. Secondly, the site of the greatest IMT at baseline in the CCA far wall was located and scanned thoroughly. This area was scanned from three angles: anterolateral, lateral and posterolateral.
Measurement from videotapes: All IMT measurements (both baseline and follow-up) from videotapes were made at the same site and angle at all examinations of each subject, which was the site with the greatest IMT (in any angle) which was clearly visible at baseline in the far wall of in CCA below the bulb. At this location IMT was measured in diastole for a length of 10 mm (or shorter, if not visible) in one angle for the far wall. Most often this was the distal centimeter of CCA. All IMT measurements were carried out after the 36-month examination.
Ultrasound image analysis: Computer analysis of ultrasound images to measure IMT was performed with a reading station equipped with Data Translation DT 2861 video frame grabber interfaced to a Panasonic AG 7355 VCR. The Prosound software, utilising automated boundary detection, was used. IMT was determined as the average difference at on the average 100 points between intima/lumen and media/adventitia interface (42).
Construction of the main outcome variable: Atherosclerotic progression was defined a priori as the linear regression slope of the mean common carotid IMT over six or seven points of follow-up time (0, 6, 12, 18, 24, 30 and 36 months). For 34 subjects, one follow-up was missing. First, the mean CCA-IMT from the right and the left side was averaged, and then the slope was computed across time-specific means.
All study participants for whom the main outcome variable was available, were included in the statistical analysis. Analyses were according to the intention-to-treat principle. As the subjects were randomised separately in four strata (smoking men, non-smoking men, smoking women, non-smoking women), this stratification was maintained also in the statistical analysis. As the a priori power calculations were based on stratified analysis in men and women, the primary statistical analysis was done in these two strata (Table 6).
To test the consistency of results, the outcome variable, the slope of the mean CCA-IMT over all available follow-up assessments, was used both as a continuous variable in general linear models and as a dichotomous variable in logistic models. The cut-off for the dichotomisation was the median among all 225 men. […] Odds ratios were estimated as antilogarithms of coefficients and their confidence intervals (Cl) based on normality assumption of SPSS 8.0 for Windows.
Three dummy variables were constructed to indicate whether the participant was randomised to receive only vitamin E, only vitamin C or both vitamins, and these were entered jointly in logistic models. The comparisons in the linear models were between each treatment group and all other groups. […]

[4] = female, human, in vivo, 3 years
[5] = men (n = 225), multivariate logistic model
[6] = women (n = 233), multivariate logistic model

Structure (SMILES)	safety of the supplements ([2]; 3 years)	drop-outs: Death ([2]; men, number of subjects)	drop-outs: Death ([2]; women, number of subjects)	mean adjusted 3-year change of the mean carotid artery intima-media thickness (supplement: Yes) ([3]; men (n = 225)) [mm/year]	OR of atherosclerotic progression [3, 5]	average unadjusted increase (slope) of the mean CCA-IMT ([3]; men, placebo 0.020) [mm/year]	treatment effect on the proportion with progression ([3]; men)	OR of atherosclerotic progression ([3]; non-smoking men (n = 125))	OR of atherosclerotic progression ([3]; non-smoking women (n = 123))	OR of atherosclerotic progression ([3]; smoking men (n = 100))	OR of atherosclerotic progression ([3]; smoking women (n = 110))	mean adjusted 3-year change of the mean carotid artery intima-media thickness (supplement: Yes) ([3]; women (n = 233)) [mm/year]	OR of atherosclerotic progression [3, 6]	average unadjusted increase (slope) of the mean CCA-IMT ([3]; women, placebo 0.016) [mm/year]	also measured
O=C1O[C@H]([C@@H](O)CO)C(O)=C1O [Vitamin C, ascorbic acid]	safe	1	0	0.0119	0.44	0.017	non-significant	0.30	0.99	0.45	0.69	0.0174	1.08	0.017	change of plasma α-tocopherol (vitamin E in plasma) ([1]; female, human): 4.0%; change of plasma α-tocopherol (vitamin E in plasma) ([1]; male, human): 5.1%; mean plasma α-tocopherol concentration, after supplementation ([1]; male, human): 33.9 µmol/L; mean plasma α-tocopherol concentration, initial value ([1]; male, human): 32.3 µmol/L; drop-outs: Adverse event [2, 4]: 2; drop-outs: Severe adverse event [2, 4]: 1; drop-outs: Adverse event ([2]; male, human, in vivo, 3 years): 2; drop-outs: Severe adverse event ([2]; male, human, in vivo, 3 years): 1; drop-outs: Death ([2]; men, number of subjects, listed as vitamin C): One; effect on atherosclerotic progression ([3]; smoking men): nonsignificant trend towards protection
CC(=O)Oc1c(C)c(C)c2c(c1C)CC[C@@](C)(CCC[C@H](C)CCC[C@H](C)CCCC(C)C)O2 [Vitamin E, d-α-tocopheryl acetate]	safe	3	0	0.0118	0.56	0.018	non-significant	1.07	1.13	0.21	0.76	0.0165	1.05	0.015	mean plasma α-tocopherol concentration, after supplementation [1]: 60.1 µmol/L; mean plasma α-tocopherol concentration, initial value [1]: 31.7 µmol/L; drop-outs: Adverse event ([2]; men, number of subjects): 1; drop-outs: Severe adverse event ([2]; men, number of subjects): 1; drop-outs: Death ([2]; men, number of subjects, listed as vitamin): three; drop-outs: Adverse event ([2]; women, number of subjects): 3; drop-outs: Severe adverse event ([2]; women, number of subjects): 2
